Test system: NanoLuc-PEST expressing L. mexicana axenic amastigotes
Experiment: microbe, parasite or virus in culture
Format: cell-based
Conditions: for Relative Bioluminescence (%) / viability at 2 µM / viability at 10 µM: 72 hours, relative to DMSO only control, n = 4; for EC50: hit compounds from the axenic amastigote screen, S3 Table, read-out: EC50, Axenic Amastigotes; for viability at 2 µM / viability at 10 µM: Leishmania mexicana, read-out: Relative Bioluminescence (%)

SMILES	Relative Bioluminescence (%) (2 µM compound)	Relative Bioluminescence (%) (10 µM compound)	EC50	viability at 2 µM (2 µM compound)	viability at 10 µM (10 µM compound)
COc1cccc(OCC(=O)c2ccc(Br)cc2)c1 [MMV676379]	81.42%	79.42%	–	–	–
Cc1cc2ccccc2n1CC(=O)N1CC(C(=O)N2CCCCC2)Oc2ccccc21 (stereo not shown) [MMV020520]	108.71%	127.42%	–	–	–
O=C(Nc1c(O)cccc1-c1nc2c(C(=O)O)cccc2o1)c1cc(-c2ccccc2)on1 [MMV676008]	79.00%	-1.15%	–	–	–
Nc1ncnc2n[nH]c(Cc3cccc4ccccc34)c12 [MMV688469]	103.98%	53.28%	–	–	–
Cc1cccc(NC(=O)c2cc(S(=O)(=O)N(C)c3ccc(F)cc3)ccc2Cl)n1 [MMV676528]	77.13%	57.74%	–	–	–
FC(F)(F)c1cc(NCCc2ccccc2)nc(-c2ccccn2)n1 [MMV659010]	95.95%	88.01%	–	–	–
Cc1cc(=O)[nH]c(-n2nc(C)cc2C)n1 [MMV393995]	27.43%	3.00%	–	–	–
CC(Oc1ccccc1)C(=O)Nc1nc(-c2ccccn2)cs1 (stereo not shown) [MMV676411]	48.75%	-0.81%	–	–	–
Cc1cc(C2=NOC(c3cc(Cl)c(F)c(Cl)c3)(C(F)(F)F)C2)ccc1C(=O)NCc1ccc2c(c1)C(C)(C)OB2O (stereo not shown) [MMV687776]	57.43%	-1.15%	–	–	–
O=C1O[C@@H](CO)CN1c1cc(F)c(C2=CCN(Cc3ccccc3)CC2)c(F)c1 [MMV687729]	76.47%	62.67%	–	–	–
CCC(=O)Nc1ccccc1C(=O)Nc1ccccn1 [MMV202553]	76.92%	77.09%	–	–	–
c1ccc2c(c1)CN(CC1CC1)CC1(CCN(Cc3c[nH]c4cnccc34)CC1)O2 [MMV023183]	103.26%	84.53%	–	–	–
CC(C)(C)CN1C(=O)C(c2ccccc2)(c2ccccc2)N=C1N [MMV026550]	91.50%	87.66%	–	–	–
O=C(Nc1ccccc1-c1nc2c(C(=O)O)cccc2o1)c1ccccc1 [MMV676162]	7.36%	-0.97%	960 nM	–	–
CC1CCCN(C(=O)C(C)Nc2cc(Cl)ccc2N2CCOCC2)C1 (stereo not shown) [MMV020388]	121.02%	143.84%	–	–	–
FC(F)(F)c1ccc(N(c2cccnc2)C2CCN(c3ccc(C(F)(F)F)cn3)CC2)cc1 [MMV689243]	34.53%	8.50%	–	–	–
Cc1nnc(NCc2cccc(Cl)c2)c2ccccc12 [MMV676555]	104.08%	90.53%	–	–	–
c1cc(C2=NCCN2)cc(-c2cc(-c3ccc(C4=NCCN4)cc3)no2)c1 [MMV688361]	96.04%	78.94%	–	–	–
COC(=O)C1=C(C)NC(C)=C(C(=O)OC(C)C)C1c1cccc2nonc12 (stereo not shown) [MMV001493, Isradipine, reference compound]	–	–	–	130%	89.6%
Clc1ccc(CN2CCN(C3=NCCN3)CC2)cc1Cl [MMV689060]	99.56%	112.63%	–	–	–

SMILES	Relative Bioluminescence (%) (2 µM compound)	Relative Bioluminescence (%) (10 µM compound)	EC50	viability at 2 µM (2 µM compound)	viability at 10 µM (10 µM compound)
COc1cc(C2=NCCN2)ccc1-n1cc(-c2cccc(C3=NCCN3)c2)nn1 [MMV688474]	77.71%	76.43%	–	–	–
CC1=Nc2ccc(Cl)cc2C(c2ccccc2)N1CCNC(=O)CN(C)C (stereo not shown) [MMV688410]	114.60%	63.15%	–	–	–
COc1ccc(C2=NN(C3CCCCCC3)C(=O)[C@@H]3CC=CC[C@H]23)cc1OCCCCOc1ccc(-c2nn[nH]n2)cc1 [MMV690027]	96.72%	33.47%	–	–	–
CC(C)(C(=O)Nc1ccc(F)cc1)n1cc(-c2ccccc2F)cn1 [MMV687239]	106.04%	118.80%	–	–	–
COc1ccc(OC)c(NCc2ccc3nc(N)nc(N)c3c2Cl)c1 [MMV675968]	100.09%	86.04%	–	–	–
c1ccc(-c2[nH]c3ccccc3c2C(c2ccccn2)N2CCCC2)cc1 (stereo not shown) [MMV688762]	73.33%	84.34%	–	–	–
N#Cc1nc(-c2ccccc2)oc1S(=O)(=O)c1ccc(Cl)cc1 [MMV676412]	0.46%	-0.09%	260 nM	–	–
Cc1cc(NCC(C)C)c2[nH]nc(-c3ccccc3)c2n1 [MMV021375]	68.90%	58.94%	–	–	–
CCc1ccc(C(NCc2nc(N)nc(N(C)C)n2)C(C)C)cc1 (stereo not shown) [MMV1019989]	59.90%	45.92%	–	–	–
CCOc1ccc(OCC(=O)Nc2cc(C)cc(C)c2)cc1 [MMV676470]	87.35%	79.72%	–	–	–
COC(=O)c1c(NC(=O)c2c(F)c(F)c(F)c(F)c2F)sc2c1CCCCC2 [MMV461553]	48.03%	-0.44%	–	–	–
CNC(=O)C1Cc2c([nH]c3cc(Cl)ccc23)C2(CCN(CCc3ccccc3)CC2)N1 (stereo not shown) [MMV031011]	110.57%	84.55%	–	–	–
CCCCOC(=O)Nc1cc2[nH]c(C3CCCCC3)nc2cc1N1CCCC1 [MMV687730]	85.81%	52.52%	–	–	–
Nc1ncnc2c1c(Cc1cccc3ccccc13)nn2CC1CCNCC1 [MMV676182]	78.18%	53.64%	–	–	–
N=C(N)c1ccc(-c2cc(-c3ccccc3)on2)cc1 [MMV688514]	40.80%	34.58%	–	–	–
Cc1ccc(S(=O)(=O)N2CCN(C(=O)c3cc(-c4ccccc4)n[nH]3)CC2)cc1 [MMV019742]	69.14%	102.67%	–	–	–
O=C(c1ccc(NCCO)cc1)C1C[C@H]1c1ccc(Cl)cc1 (stereo partly shown) [MMV676877]	100.77%	116.30%	–	–	–
CO/C=C(/C(=O)OC)c1ccccc1Oc1cc(Oc2ccccc2C#N)ncn1 [MMV021057, Azoxystrobin]	62.63%	55.66%	–	–	–
Cc1cc(C)nc(-n2nc(C)cc2Nc2ccccc2)n1 [MMV062221]	64.16%	7.64%	–	–	–
Cc1ccc2cc(C3NC(=O)c4ccccc4N3)c(Cl)nc2c1 (stereo not shown) [MMV019807]	69.92%	111.93%	–	–	–

SMILES	Relative Bioluminescence (%) (2 µM compound)	Relative Bioluminescence (%) (10 µM compound)	EC50	viability at 2 µM (2 µM compound)	viability at 10 µM (10 µM compound)
O=C(NCCc1c[nH]c2ccccc12)c1cc2ccccc2oc1=O [MMV676539]	54.78%	62.48%	–	–	–
CC(C)(C)c1cnc(NC(=O)c2ccccc2O)s1 [MMV495543]	70.90%	27.02%	–	–	–
CCc1ccccc1-n1c(C)cn2c3c(=O)n(C(C(=O)OC)C(C)C)c(=O)n(C)c3nc12 (stereo not shown) [MMV688550]	66.32%	56.13%	–	–	–
CC1=NN(c2nc3ccccc3s2)C(=O)C1Cc1cccc2ccccc12 (stereo not shown) [MMV676558]	-0.86%	-0.77%	470 nM	–	–
CC(=O)NC[C@H]1CN(c2ccc(-c3ccc(CNCc4cnn[nH]4)cc3)c(F)c2)C(=O)O1 [MMV688327, Radezolid, reference compound]	–	–	–	87.8%	126%
O=C(NC1CC1)c1ccc(N2CCOc3ccc(Cl)cc32)s1 [MMV020537]	116.22%	146.04%	–	–	–
Cc1nc(-c2ccccn2)nc(NCCc2ccc(S(C)(=O)=O)cc2)c1Cl [MMV658993]	93.82%	64.93%	–	–	–
OCc1ccc(-c2cncc(Nc3cccc(Cl)c3)c2)cc1 [MMV026468]	116.14%	104.46%	–	–	–
CC(C)(CN)c1nc(-c2ccc(Cl)c(O)c2)c(-c2ccnc(N)n2)[nH]1 [MMV030734]	80.21%	87.08%	–	–	–
c1ccc(Oc2ccc(-c3cc(C4CCOCC4)[nH]n3)cc2)cc1 [MMV687762]	41.49%	31.40%	–	–	–
CC(C)c1ncc(-c2ccncc2)c(C2CCC(CNC(=O)c3cccnc3)CC2)n1 (stereo not shown) [MMV676442]	118.75%	113.29%	–	–	–
CCn1cnc2c(Nc3cc(F)cc(F)c3)nc(C#N)nc21 [MMV676881]	76.51%	54.00%	–	–	–
Nc1ccc2ncnc(Nc3ccc(OCc4cccc(F)c4)c(Cl)c3)c2c1 [MMV688273]	63.86%	0.09%	–	–	–
CCOc1ccccc1NC(C)C(=O)Nc1cc(C(F)(F)F)ccc1N1CCOCC1 (stereo not shown) [MMV407834]	70.36%	63.07%	–	–	–
O=C1O[C@@H](COc2ccon2)CN1c1cc(F)c(C2=CCN(Cc3ccccc3)CC2)c(F)c1 [MMV687813]	52.93%	58.34%	–	–	–
COc1ccccc1OCCCCn1c(C2CC2)nc2ccccc21 [MMV676474]	84.28%	88.48%	–	–	–
CN(C)c1cc(NC(=O)Nc2ccccc2)c2ccccc2n1 [MMV006901]	96.82%	107.15%	–	–	–
CS(=O)(=O)c1cccc(-c2cnc3[nH]cc(-c4ccc(CCC(=O)O)cc4)c3c2)c1 [MMV026020]	94.58%	94.82%	–	–	–
COc1cccc2c(C)nc(N=C(N)N)nc12 [MMV000907]	95.69%	78.62%	–	–	–
